According to patent publication US20200140489A1 (priority 2013, published 2020):
Read-outs that look alike come from different tables or passages of the source. Positions of bridges follow the written chain, without caps; N, C: chain ends. Non-standard residues stand in square brackets, D forms with d. Residues, ends and D or L forms follow the SMILES beside them. NMeI = CC[C@H](C)[C@H](NC)C(=O)O; NMeD = CN[C@@H](CC(=O)O)C(=O)O; NMeL = CN[C@@H](CC(C)C)C(=O)O; Nleu = CC(C)CNCC(=O)O

Assays:
Type in all cases: cell-based, S. aureus
AgrC-I = AgrC-I (Staphylococcus aureus, UniProt O07911); conditions: read-out: AgrC-I IC50, fluorescence reporter strain
Chain of AgrC-I (O07911 1-430): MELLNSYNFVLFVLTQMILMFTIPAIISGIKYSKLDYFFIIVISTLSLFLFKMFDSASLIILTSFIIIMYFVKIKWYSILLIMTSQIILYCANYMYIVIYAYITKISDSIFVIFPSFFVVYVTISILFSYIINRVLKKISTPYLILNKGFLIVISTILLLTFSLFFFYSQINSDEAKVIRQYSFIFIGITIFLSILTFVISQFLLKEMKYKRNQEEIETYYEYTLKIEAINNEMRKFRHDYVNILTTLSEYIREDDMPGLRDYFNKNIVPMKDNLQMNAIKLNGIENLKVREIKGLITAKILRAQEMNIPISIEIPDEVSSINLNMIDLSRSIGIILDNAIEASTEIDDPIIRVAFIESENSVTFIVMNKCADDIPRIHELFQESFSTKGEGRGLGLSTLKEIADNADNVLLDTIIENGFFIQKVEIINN

AgrC-II = AgrC-II (Staphylococcus aureus, UniProt O33587); conditions: read-out: AgrC-II IC50, fluorescence reporter strain
Chain of AgrC-II (O33587 1-437): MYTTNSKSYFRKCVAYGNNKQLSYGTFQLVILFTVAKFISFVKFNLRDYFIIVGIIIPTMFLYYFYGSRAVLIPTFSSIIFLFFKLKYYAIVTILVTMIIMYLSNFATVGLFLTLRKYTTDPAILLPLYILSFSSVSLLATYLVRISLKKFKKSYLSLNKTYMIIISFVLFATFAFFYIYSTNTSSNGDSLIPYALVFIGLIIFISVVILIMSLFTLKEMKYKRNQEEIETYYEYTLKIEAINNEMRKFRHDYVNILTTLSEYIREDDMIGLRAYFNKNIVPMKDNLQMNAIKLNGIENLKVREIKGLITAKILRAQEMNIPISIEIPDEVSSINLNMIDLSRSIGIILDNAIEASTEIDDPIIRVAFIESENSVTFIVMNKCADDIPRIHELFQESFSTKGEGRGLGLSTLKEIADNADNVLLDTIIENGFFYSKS

AgrC-III = AgrC-III (Staphylococcus aureus, UniProt O33590); conditions: for AgrC-III activity: gfp/fluorescence assay; for IC50: read-out: AgrC-III IC50, fluorescence reporter strain
Chain of AgrC-III (O33590 1-425): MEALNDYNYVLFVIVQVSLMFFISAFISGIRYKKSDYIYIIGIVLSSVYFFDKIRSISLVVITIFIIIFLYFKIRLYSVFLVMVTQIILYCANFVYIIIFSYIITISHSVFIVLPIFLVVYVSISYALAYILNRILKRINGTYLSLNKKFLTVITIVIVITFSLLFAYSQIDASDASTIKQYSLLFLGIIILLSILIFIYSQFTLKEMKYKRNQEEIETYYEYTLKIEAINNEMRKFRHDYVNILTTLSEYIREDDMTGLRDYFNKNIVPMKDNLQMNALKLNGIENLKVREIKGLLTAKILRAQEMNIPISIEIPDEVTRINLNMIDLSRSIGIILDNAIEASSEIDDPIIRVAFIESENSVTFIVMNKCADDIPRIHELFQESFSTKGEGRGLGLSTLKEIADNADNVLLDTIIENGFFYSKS

AgrC-IV = AgrC-IV (Staphylococcus aureus, UniProt Q309Z2); conditions: for AgrC-IV activity: gfp/fluorescence assay; for IC50: read-out: AgrC-IV IC50
Chain of AgrC-IV (Q309Z2 1-430): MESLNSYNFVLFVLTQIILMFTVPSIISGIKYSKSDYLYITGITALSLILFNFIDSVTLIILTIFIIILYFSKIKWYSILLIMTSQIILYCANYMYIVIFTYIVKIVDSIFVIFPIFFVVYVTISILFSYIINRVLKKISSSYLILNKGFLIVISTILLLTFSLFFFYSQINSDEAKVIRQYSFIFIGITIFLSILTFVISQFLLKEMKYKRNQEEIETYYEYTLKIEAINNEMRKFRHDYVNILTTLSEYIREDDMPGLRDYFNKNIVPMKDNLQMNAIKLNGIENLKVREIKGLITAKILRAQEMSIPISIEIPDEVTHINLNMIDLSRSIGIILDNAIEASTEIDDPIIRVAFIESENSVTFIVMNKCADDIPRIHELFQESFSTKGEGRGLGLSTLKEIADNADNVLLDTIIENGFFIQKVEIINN

[1] = second-generation analogues, 200 fM − 10 μM
[2] = second-generation analogues, fluorescence reporter strain, 200 fM − 10 μM
[3] = AIPs tested over 200 fM − 10 μM or (b1) 2.5 pM − 10 μM, triplicate
[4] = fluorescence reporter strain, AIPs tested over 200 fM − 10 μM or (b1) 2.5 pM − 10 μM, triplicate

| SMILES | IC50 (AgrC-I; [3]) | IC50 (AgrC-II; [3]) | IC50 (AgrC-III; [3]) | IC50 (AgrC-IV; [4]) | also measured |
| --- | --- | --- | --- | --- | --- |
| CC[C@H](C)[C@H](NC(=O)[C@H](C)N)C(=O)N[C@@H](CC(N)=O)C(=O)N[C@H]1CSC(=O)[C@H](CC(C)C)NC(=O)[C@H](CC(C)C)NC(=O)[C@H](Cc2ccccc2)NC(=O)[C@H](CC(=O)O)NC1=O [A-AIP-III, A-I-N-(C-D-F-L-L)] (H-AINCDFLL; thioester 4-C) |  |  |  |  | IC50 (AgrC-I; [1]): 26.1 nM; IC50 (AgrC-II; [1]): 6.4 nM; AgrC-III activity (AgrC-III): partial agonist; IC50 (AgrC-III; [1]): 27.5 nM; AgrC-IV activity (AgrC-IV): partial agonism; IC50 (AgrC-IV; [2]): 28.5 nM |
| CC(C)C[C@@H]1NC(=O)[C@H](Cc2ccccc2)NC(=O)[C@H](CC(=O)O)NC(=O)[C@@H](NC(=O)[C@H](C)NC(=O)[C@H](C)N)CSC(=O)[C@H](CC(C)C)NC1=O [AIP-III I1A/N2A, A-A-(C-D-F-L-L)] (H-AACDFLL; thioester 3-C) |  |  |  |  | IC50 (AgrC-I; [1]): 7.4 nM; IC50 (AgrC-II; [1]): 4.38 nM; IC50 (AgrC-III; [1]): 2.6 nM; IC50 (AgrC-IV; [2]): 5.41 nM |
| CC[C@H](C)[C@H](N)C(=O)N[C@@H](CC(N)=O)C(=O)N[C@H]1CSC(=O)[C@H](CC(C)C)NC(=O)[C@H](C)NC(=O)[C@H](Cc2ccccc2)NC(=O)[C@H](CC(=O)O)NC1=O [AIP-III L6A, I-N-(C-D-F-A-L)] (H-INCDFAL; thioester 3-C) | > 200 nM | > 200 nM | > 200 nM | > 200 nM |  |
| CC[C@H](C)[C@H](N)C(=O)N[C@@H](CC(N)=O)C(=O)N[C@H]1CSC(=O)[C@H](C)NC(=O)[C@H](CC(C)C)NC(=O)[C@H](Cc2ccccc2)NC(=O)[C@H](CC(=O)O)NC1=O [AIP-III L7A, I-N-(C-D-F-L-A)] (H-INCDFLA; thioester 3-C) | > 200 nM | > 200 nM | > 200 nM | > 200 nM | AgrC-III activity (AgrC-III): largely inactive |
| CC[C@H](C)[C@H](N)C(=O)N[C@@H](CC(N)=O)C(=O)N[C@H]1CSC(=O)[C@H](CC(C)C)NC(=O)[C@H](CC(C)C)NC(=O)[C@H](Cc2ccccc2)NC(=O)[C@H](CC(=O)O)N(C)C1=O [AIP-III N-Me-D4, I-N-(C-NMeD-F-L-L)] (H-INC[NMeD]FLL; thioester 3-C) | 172 nM | 7.98 nM | 90.2 nM | 36.9 nM |  |
| CC[C@H](C)[C@H](NC)C(=O)N[C@@H](CC(N)=O)C(=O)N[C@H]1CSC(=O)[C@H](CC(C)C)NC(=O)[C@H](CC(C)C)NC(=O)[C@H](Cc2ccccc2)NC(=O)[C@H](CC(=O)O)NC1=O [AIP-III N-Me-I1, NMeI-N-(C-D-F-L-L)] (H-[NMeI]NCDFLL; thioester 3-C) | 60.8 nM | 12.8 nM | > 1000 nM | 49.2 nM |  |
| CC[C@H](C)[C@H](N)C(=O)N[C@@H](CC(N)=O)C(=O)N[C@H]1CSC(=O)[C@H](CC(C)C)NC(=O)[C@H](CC(C)C)N(C)C(=O)[C@H](Cc2ccccc2)NC(=O)[C@H](CC(=O)O)NC1=O [AIP-III N-Me-L6, I-N-(C-D-F-NMeL-L)] (H-INCDF[NMeL]L; thioester 3-C) | > 1000 nM |  | 162 nM | 81.6 nM | AgrC-IV activity (AgrC-IV): AgrC-IV selective inhibitor |
| CC[C@H](C)[C@H](N)C(=O)N[C@@H](CC(N)=O)C(=O)N[C@H]1CSC(=O)[C@H](CC(C)C)N(C)C(=O)[C@H](CC(C)C)NC(=O)[C@H](Cc2ccccc2)NC(=O)[C@H](CC(=O)O)NC1=O [AIP-III N-Me-L7, I-N-(C-D-F-L-NMeL)] (H-INCDFL[NMeL]; thioester 3-C) |  |  | > 1000 nM |  | AgrC-IV IC50 (AgrC-IV; [4]): _h |
| CC[C@H](C)[C@H](N)C(=O)N[C@@H](CC(N)=O)C(=O)N[C@H]1CSC(=O)[C@H](CC(C)C)NC(=O)[C@H](CC(C)C)NC(=O)[C@H](Cc2ccccc2)NC(=O)CN(CC(=O)O)C1=O [AIP-III nD4, I-N-(C-nD-F-L-L)] | 162 nM | 28.3 nM |  | 53.2 nM |  |
| CC[C@H](C)[C@H](N)C(=O)N[C@@H](CC(N)=O)C(=O)N[C@H]1CSC(=O)[C@H](CC(C)C)NC(=O)CN(CC(C)C)C(=O)[C@H](Cc2ccccc2)NC(=O)[C@H](CC(=O)O)NC1=O [AIP-III nL6, I-N-(C-D-F-nL-L)] (H-INCDF[Nleu]L; thioester 3-C) |  |  | > 1000 nM | > 1000 nM |  |
